Molecules are shown by their SMILES. Counter-ions that a name gives are not always drawn. A value given as a limit tells only on which side of the number the result lay.

The test system of one experiment is Lectin Pathway. The experiment in a line: Lectin Pathway Activation Assay in Human Serum (mannan-coated ELISA, C3c detection). The settings on record: 1% human serum. It is filed as biochemical. The procedure: Microtiter ELISA plate was coated with mannan from Saccharomyces cerevisiae (Sigma-Aldrich, M7504) for overnight at 4° C. in coating buffer [15 mM Na2CO3, 35 mM NaHCO3]. Plate was blocked with 1% bovine serum albumin (BSA) (Sigma-Aldrich, A3294) in Tris-buffered Saline (TBS) [10 mM Tris-HCl, 140 mM NaCl] for 2 hours at room temperature. […] 100 μL of this mixture were then added to the plate and plate was incubated at 37° C. for up to an hour with gentle shaking, 200 rpm. After that, plate was washed thrice in wash buffer [TBS containing 5 mM CaCl2) and 0.05% Tween-20] and 100 μL of rabbit anti human C3c (Dako, A0062) diluted 1:5000 in wash buffer were added and incubated at 37° C. for 30 minutes.
In general terms: An ELISA detects its analyte on a solid surface through an enzyme-linked reagent.

The target of a further experiment is mMASP-2 (Mus musculus, UniProt Q91WP0). The experiment in a line: Enzymatic assay for mMASP-2. The experiment is classed as biochemical.
Sequence of mMASP-2 (Q91WP0 20-685): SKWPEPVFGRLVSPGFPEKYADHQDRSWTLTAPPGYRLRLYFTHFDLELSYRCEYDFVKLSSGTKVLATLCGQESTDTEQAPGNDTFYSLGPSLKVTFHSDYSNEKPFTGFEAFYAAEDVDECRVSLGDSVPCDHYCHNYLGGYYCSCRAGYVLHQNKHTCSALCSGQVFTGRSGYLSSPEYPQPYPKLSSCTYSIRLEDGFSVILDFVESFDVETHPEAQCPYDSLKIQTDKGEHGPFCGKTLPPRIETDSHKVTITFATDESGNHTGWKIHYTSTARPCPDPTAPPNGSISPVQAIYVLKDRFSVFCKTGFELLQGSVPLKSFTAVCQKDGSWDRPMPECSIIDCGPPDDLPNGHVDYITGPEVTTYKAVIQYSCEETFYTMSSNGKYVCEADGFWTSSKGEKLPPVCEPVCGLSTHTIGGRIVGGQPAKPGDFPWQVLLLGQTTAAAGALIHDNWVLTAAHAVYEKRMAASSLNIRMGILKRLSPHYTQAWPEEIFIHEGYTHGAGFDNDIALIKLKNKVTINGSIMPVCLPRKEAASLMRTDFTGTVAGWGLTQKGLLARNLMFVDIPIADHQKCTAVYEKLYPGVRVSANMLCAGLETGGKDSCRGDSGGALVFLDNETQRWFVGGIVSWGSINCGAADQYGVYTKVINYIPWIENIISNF

The term IC50 denotes the concentration that inhibits the measured activity by half. A low value points to inhibition by little substance. With `N=C(N)c1ccc(CNC(=O)[C@@H]2CCN2C(=O)[C@H](NCC(=O)O)C2CCCCC2)cc1` [compound 999, melagatran, reference compound], the IC50 in the experiment with Lectin Pathway was 500 to 50000 nM.
On the same count and under the same terms, as for `C[C@H](NC(=O)[C@H](N)CCc1ccccc1)C(=O)NCc1ccc(C(=N)N)cc1` [compound 1024], the figure is under 500 nM; as for `N=C(N)c1ccc(CNC(=O)[C@@H]2CCCN2C(=O)[C@H](N)C2CCCCC2)cc1` [compound 1027], 50 to 5000 nM.
Broadly, the Ki is a dissociation constant, usually derived from enzyme kinetics or from competition with a known ligand. Low values mean higher affinity, high ones lower affinity. Compound `C[C@H](NC(=O)c1cc(-c2ccccc2)c[nH]1)C(=O)NCc1ccc(C(=N)N)cc1` [compound 1030] showed a Ki on mMASP-2 of under 500 nM.
`N=C(N)c1ccc(CNC(=O)[C@@H]2CCN2C(=O)[C@H]2Cc3ccccc3CN2)cc1` [compound 1034]: the IC50 in the experiment on Lectin Pathway fell in the range of 500 to 50000 nM.
Turning to `N=C(N)c1ccc(CNC(=O)[C@@H]2CCN2C(=O)[C@H](N)CCc2ccccc2)cc1` [compound 1038], in the experiment on Lectin Pathway, the IC50 is under 500 nM.
On the same count and under the same terms, as for `Cc1ccc(CC[C@@H](N)C(=O)N[C@@H](C)C(=O)NCc2ccc(C(=N)N)cc2)cc1` [compound 1043], the figure is 50 to 5000 nM.
The same measure, in the same setting: as for `C[C@H](NC(=O)[C@H](N)CCc1ccc(F)cc1)C(=O)NCc1ccc(C(=N)N)cc1` [compound 1047], the figure is 50 to 5000 nM; as for `C[C@H](NC(=O)[C@H](N)CCc1cccc(F)c1)C(=O)NCc1ccc(C(=N)N)cc1` [compound 1048], 50 to 5000 nM.
On the same count and under the same terms, as for `N=C(N)c1ccc(CNC(=O)[C@@H]2CCN2C(=O)[C@H](N)C2Cc3ccccc3C2)cc1` [compound 1058, (S)-1-((R)-2-Amino-2-(2,3-dihydro-1H-inden-2-yl)acetyl)-N-(4-carbamimidoylbenzyl)azetidine-2-carboxamide], the figure is 50 to 5000 nM.
Take `C[C@H](NC(=O)[C@H](N)CCc1ccc(Cl)cc1)C(=O)NCc1ccc(C(=N)N)cc1` [compound 1080]: in the experiment on Lectin Pathway, the IC50 was 50 to 5000 nM.
As to `C[C@H](NC(=O)[C@H]1C[C@H](c2ccccc2)CN1)C(=O)NCc1ccc2c(N)nccc2c1` [compound 1090], the Ki on mMASP-2 was under 500 nM.
In turn, `C[C@H](NC(=O)[C@H](N)Cc1cccc2ccccc12)C(=O)NCc1ccc(C(=N)N)cc1` [compound 1092] yielded an IC50 with Lectin Pathway of 50 to 5000 nM.
Still for that read-out and setting: as for `CN(CC(=O)NCc1ccc(C(=N)N)cc1)C(=O)[C@H](NCC(=O)O)C1CCCCC1` [compound 1096], the figure is 500 to 50000 nM.
As for `C[C@H](NC(=O)[C@H]1Cc2c([nH]c3ccccc23)CN1)C(=O)NCc1ccc(C(=N)N)cc1` [compound 1097], the Ki at mMASP-2 is under 500 nM.
In the experiment on Lectin Pathway, `C[C@@H](C(=O)NCc1ccc(C(=N)N)cc1)N(C)C(=O)[C@H](NCC(=O)O)C1CCCCC1` [compound 1107] registered an IC50 of 500 to 50000 nM.
Still for that read-out and setting: as for `C[C@H](NC(=O)[C@@H](CCc1ccccc1)NCC(=O)O)C(=O)NCc1ccc(C(=N)N)cc1` [compound 1110], the figure is under 500 nM.
In turn, `C[C@H](NC(=O)[C@H](N)CCc1cc(Cl)cc(Cl)c1)C(=O)NCc1ccc(C(=N)N)cc1` [compound 1118] yielded an inhibitory constant (Ki) on mMASP-2 of under 500 nM.
`N=C(N)c1ccc(CNC(=O)[C@@H]2CCN2C(=O)[C@@H](CCc2ccccc2)NCC(=O)O)cc1` [compound 1124] registered an IC50 in the experiment on Lectin Pathway of under 500 nM.
On mMASP-2, `Cc1nc(N)ccc1CNC(=O)[C@H](C)NC(=O)[C@H]1C[C@@H](c2cccc(CN)c2)CN1` [compound 1291, (2R,4S)—N—((S)-1-(((6-Amino-2-methylpyridin-3-yl)methyl)amino)-1-oxopropan-2-yl)-4-(3-(aminomethyl)phenyl)pyrrolidine-2-carboxamide Dihydrochloride] had a Ki of 10000 to 25000 nM.
Still for that read-out and setting: as for `C[C@H](NC(=O)[C@H]1C[C@H](c2ccccc2)CN1)C(=O)NCc1ccc(/C(N)=N/O)cc1` [compound 1292], the figure is 10000 to 25000 nM; as for `C[C@H](NC(=O)[C@H](N)CCc1ccccc1)C(=O)NCc1cc(Cl)ccc1-n1cnnn1` [compound 1325, (R)-2-amino-N—((S)-1-((5-chloro-2-(1H-tetrazol-1-yl)benzyl)amino)-1-oxopropan-2-yl)-4-phenylbutanamide], 10000 to 25000 nM.
Take `CC(=O)Nc1ccc(CCN[C@H](CCc2ccccc2)C(=O)N[C@@H](C)C(=O)NCc2ccc(N)nc2C)cc1` [compound 1368, (R)-2-((4-Acetamidophenethyl)amino)-N—((S)-1-(((6-amino-2-methylpyridin-3-yl)methyl)amino)-1-oxopropan-2-yl)-4-phenylbutanamide]: in the experiment with Lectin Pathway (mannan-coated plate), the IC50 was 50 to 500 nM.
On the same count and under the same terms, as for `Cc1nc(N)ccc1CNC(=O)[C@H](C)NC(=O)[C@H]1C[C@H](Cc2ccccc2-c2ccccc2)CN1` [compound 1373, (2R,4S)-4-([1,1′-Biphenyl]-2-ylmethyl)-N—((S)-1-(((6-amino-2-methylpyridin-3-yl)methyl)amino)-1-oxopropan-2-yl)pyrrolidine-2-carboxamide], the figure is 50 to 500 nM.
For `CCCCCN[C@H](CCc1ccccc1)C(=O)N[C@@H](C)C(=O)NCc1ccc(N)nc1C` [compound 1377, (R)—N—((S)-1-(((6-Amino-2-methylpyridin-3-yl)methyl)amino)-1-oxopropan-2-yl)-2-(pentylamino)-4-phenylbutanamide], in the experiment with Lectin Pathway (mannan-coated plate), the IC50 was in the range of 50 to 500 nM.
The same measure, in the same setting: as for `Cc1nc(N)ccc1CNC(=O)[C@H](C)NC(=O)[C@@H](CCc1ccccc1)NCc1ccc(C(=O)N2CCOCC2)cc1` [compound 1381, (R)—N—((S)-1-(((6-Amino-2-methylpyridin-3-yl)methyl)amino)-1-oxopropan-2-yl)-2-((4-(morpholine-4-carbonyl)benzyl)amino)-4-phenylbutanamide], the figure is 500 to 5000 nM; as for `C[C@H](NC(=O)[C@H]1C[C@H](c2ccccc2)CN1)C(=O)NCc1cc(Cl)cc(Cl)c1O` [compound 1395, (2R,4R)—N—((S)-1-((3,5-dichloro-2-hydroxybenzyl)amino)-1-oxopropan-2-yl)-4-phenylpyrrolidine-2-carboxamide], 5000 to 50000 nM.
On the same count and under the same terms, as for `Cc1nc(N)ccc1CNC(=O)[C@H](C)NC(=O)[C@H]1C[C@@H](c2ccccc2)CCN1CC(=O)O` [compound 1398, 2-((2R,4S)-2-(((S)-1-(((6-Amino-2-methylpyridin-3-yl)methyl)amino)-1-oxopropan-2-yl)carbamoyl)-4-phenylpiperidin-1-yl)acetic acid], the figure is 50 to 500 nM; as for `Cc1nc(N)ccc1CNC(=O)[C@H](C)NC(=O)[C@H]1C[C@H](Cc2cc(-c3ccccc3)cs2)CN1` [compound 1399, (2R,4R)—N—((S)-1-(((6-Amino-2-methylpyridin-3-yl)methyl)amino)-1-oxopropan-2-yl)-4-((4-phenylthiophen-2-yl)methyl)pyrrolidine-2-carboxamide], 50 to 500 nM; as for `Cc1nc(N)ccc1CNC(=O)[C@H](C)NC(=O)[C@H]1C[C@H](Cc2cccc(-c3ccccc3)c2)CN1` [compound 1406, (2R,4S)-4-([1,1′-Biphenyl]-3-ylmethyl)-N—((S)-1-(((6-amino-2-methylpyridin-3-yl)methyl)amino)-1-oxopropan-2-yl)pyrrolidine-2-carboxamide], 50 to 500 nM.
Same read-out and setting: as for `COc1cc(C[C@@H]2CN[C@@H](C(=O)N[C@@H](C)C(=O)NCc3ccc(N)nc3C)C2)cc(OC)c1` [compound 1407, (2R,4S)—N—((S)-1-(((6-Amino-2-methylpyridin-3-yl)methyl)amino)-1-oxopropan-2-yl)-4-(3,5-dimethoxybenzyl)pyrrolidine-2-carboxamide], the figure is 50 to 500 nM; as for `C[C@H](NC(=O)[C@H]1C[C@H](Cc2ccccc2-c2ccc(Cl)s2)CN1)C(=O)NCc1cc(Cl)ccc1-n1cnnn1` [compound 1409, (2R,4S)—N—((S)-1-((5-Chloro-2-(1H-tetrazol-1-yl)benzyl)amino)-1-oxopropan-2-yl)-4-(2-(5-chlorothiophen-2-yl)benzyl)pyrrolidine-2-carboxamide], 500 to 5000 nM; as for `Cc1nc(N)ccc1CNC(=O)[C@H](C)NC(=O)[C@H]1C[C@H](Cc2ccccc2-c2ccc(Cl)s2)CN1` [compound 1410, (2R,4S)—N—((S)-1-(((6-Amino-2-methylpyridin-3-yl)methyl)amino)-1-oxopropan-2-yl)-4-(2-(5-chlorothiophen-2-yl)benzyl)pyrrolidine-2-carboxamide], 500 to 5000 nM.
For `Cc1nc(N)ccc1CNC(=O)[C@H](C)NC(=O)[C@H]1C[C@@H](c2ccccc2)CCN1CCC(=O)O` [compound 1411, 3-((2R,4S)-2-(((S)-1-(((6-Amino-2-methylpyridin-3-yl)methyl)amino)-1-oxopropan-2-yl)carbamoyl)-4-phenylpiperidin-1-yl)propanoic acid], the IC50 in the experiment with Lectin Pathway (mannan-coated plate) lay within 50 to 500 nM.
On the same count and under the same terms, as for `Cc1nc(N)ccc1CNC(=O)[C@H](C)NC(=O)[C@H]1C[C@H](Cc2cccc(C(=O)N3CCC3)c2)CN1` [compound 1420, (2R,4S)—N—((S)-1-(((6-Amino-2-methylpyridin-3-yl)methyl)amino)-1-oxopropan-2-yl)-4-(3-(azetidine-1-carbonyl)benzyl)pyrrolidine-2-carboxamide], the figure is 50 to 500 nM; as for `C[C@H](NC(=O)[C@H]1C[C@@H](c2ccccc2)CCN1)C(=O)NCc1cc(Cl)ccc1-n1cnnn1` [compound 1426, (2R,4S)—N—((S)-1-((5-Chloro-2-(1H-tetrazol-1-yl)benzyl)amino)-1-oxopropan-2-yl)-4-phenylpiperidine-2-carboxamide], under 50 nM.
The same measure, in the same setting: as for `C[C@H](NC(=O)[C@H]1C[C@H](c2ccccc2)CN1)C(=O)NCc1cnc2c(c1)c(Cl)cn2C` [compound 1442, (2R,4R)—N—((S)-1-(((3-Chloro-1-methyl-1H-pyrrolo[2,3-b]pyridin-5-yl)methyl)amino)-1-oxopropan-2-yl)-4-phenylpyrrolidine-2-carboxamide], the figure is 500 to 5000 nM.

The record behind these values is patent publication US20260193179A9 (priority 2018, published 2026).
